# According to patent US12291515B2, “Pyrrolidine derivative and use thereof” (Rushi Biotech (Hangzhou) Co., Ltd, priority 2021, dated 2025):
# Columns and labels:
# Type in all cases: cell-based
# [1] = test system: Human esophageal cancer cell TE-1; experiment: CCK-8 cell proliferation assay, TE-1; conditions: TE-1 cells, CCK-8, 24 hrs with drug, OD 450 nm
# Experimental: (§1) The effect of samples on the proliferation of human tumor cells in vitro was determined by CCK-8 cell proliferation assay.
# (§2) The cells were assayed through a method including the following steps:
# (§3) 1) The cells were digested, counted, and prepared into a cell suspension in a corresponding culture medium (Table 1) (5×10^4 cells/ml for CFPAC-1 and RPMI 8226, and 3.5×10^4 cells/ml for rest cells). The cell suspension was added to each well of a 96-well plate in 100 μl well.
# (§4) 2) Then the 96-well plate was incubated for 24 hrs in an incubator at 37° C. and 5% CO2.
# (§5) 3) The drug was diluted with the culture medium to the required working concentration. 100 μl of the corresponding drug containing medium was added to each well. A negative control group (added with drug-free culture medium) was also set.
# (§6) 4) Then the 96-well plate was incubated for 24 hrs in an incubator at 37° C. and 5% CO2.
# (§7) 5) The 96-well plate was stained with CCK-8, and The OD value was determined at λ=450 nm.
# (§8) a) 10 μl of CCK-8 was added to each well, and incubated in the incubator for another 2-3 hrs.
# (§9) b) The content was mixed uniformly by shaking gently on a shaker for 10 min, and the bubbles in the 96-well plate were removed.
# (§10) 6) The inhibition rate in each group was calculated.
# [2] = test system: Human lung adenocarcinoma cell A549; experiment: CCK-8 cell proliferation assay, A549; conditions: A549 cells, CCK-8, 24 hrs with drug, OD 450 nm
# Experimental: as §1, §2, §3, §4, §5, §6, §7, §8, §9, §10
# [3] = test system: Human colon cancer cell HCT-116; experiment: CCK-8 cell proliferation assay, HCT116; conditions: HCT116 cells, CCK-8, 24 hrs with drug, OD 450 nm
# Experimental: as §1, §2, §3, §4, §5, §6, §7, §8, §9, §10
# [4] = test system: Human multiple myeloma cell RPMI 8226; experiment: CCK-8 cell proliferation assay, RPMI8226; conditions: RPMI8226 cells, CCK-8, 24 hrs with drug, OD 450 nm
# Experimental: as §1, §2, §3, §4, §5, §6, §7, §8, §9, §10
# [5] = test system: Human gastric cancer cell MKN45; experiment: CCK-8 cell proliferation assay, MKN-45; conditions: MKN-45 cells, CCK-8, 24 hrs with drug, OD 450 nm
# Experimental: as §1, §2, §3, §4, §5, §6, §7, §8, §9, §10
# [6] = test system: Human hepatoma cell HepG2; experiment: CCK-8 cell proliferation assay, HepG2; conditions: HepG2 cells, CCK-8, 24 hrs with drug, OD 450 nm
# Experimental: as §1, §2, §3, §4, §5, §6, §7, §8, §9, §10
# [7] = test system: Human pancreatic cancer cell CFPAC-1; experiment: CCK-8 cell proliferation assay, CFPAC-1; conditions: CFPAC-1 cells, CCK-8, 24 hrs with drug, OD 450 nm
# Experimental: as §1, §2, §3, §4, §5, §6, §7, §8, §9, §10
SMILES,IC50 [1] [µM],IC50 [2] [µM],IC50 [3] [µM],IC50 [4] [µM],IC50 [5] [µM],IC50 [6] [µM],IC50 [7] [µM]
"O=C(NCCCCCCC1CCN(C(=O)c2cccs2)C1)Nc1cccnc1 (stereo not shown) [BSS-TP110, 1-(6-(1-(2-thienylformyl)pyrrolidin-3-yl)hexyl)-2-(3-pyridinyl)urea]",0.109,0.044,0.073,0.056,0.075,0.116,0.052
"O=C(NCCCCCCC1CCN(C(=O)c2ccco2)C1)Nc1cccnc1 (stereo not shown) [BSS-TP111, 1-(6-(1-(furoyl)pyrrolidin-3-yl)hexyl)-2-(3-pyridinyl)urea]",0.133,0.061,0.062,0.053,0.077,0.087,0.042
"O=C(NCCCCCCC1CCN(C(=O)c2ccc[nH]2)C1)Nc1cccnc1 (stereo not shown) [BSS-TP112, 1-(6-(1-(2-pyrrolylformyl)pyrrolidin-3-yl)hexyl)-2-(3-pyridinyl)urea]",0.093,0.052,0.078,0.042,0.059,0.081,0.036
O=C(NCCCCCCC1CCN(C(=O)c2ccccc2)C1)Nc1ccnc(F)c1 (stereo not shown) [BSS-TP113],0.077,0.033,0.041,0.038,0.042,0.083,0.038
O=C(NCCCCCCC1CCN(C(=O)c2ccc[nH]2)C1)Nc1ccnc(F)c1 (stereo not shown) [BSS-TP114],0.076,0.049,0.085,0.039,0.051,0.072,0.033
O=C(NCCCCCCC1CCN(C(=O)c2ccco2)C1)Nc1ccnc(F)c1 (stereo not shown) [BSS-TP115],0.088,0.051,0.068,0.046,0.04,0.079,0.039
O=C(NCCCCCCC1CCN(C(=O)c2cccs2)C1)Nc1ccnc(F)c1 (stereo not shown) [BSS-TP116],0.069,0.039,0.083,0.031,0.079,0.081,0.047
O=C(NCCCCCCC1CCN(C(=O)c2ccccc2)C1)Nc1cc(F)nc(F)c1 (stereo not shown) [BSS-TP117],0.047,0.058,0.053,0.036,0.045,0.049,0.037
O=C(NCCCCCCC1CCN(C(=O)c2ccco2)C1)Nc1cc(F)nc(F)c1 (stereo not shown) [BSS-TP118],0.081,0.059,0.061,0.024,0.062,0.064,0.042
O=C(NCCCCCCC1CCN(C(=O)c2cccs2)C1)Nc1cc(F)nc(F)c1 (stereo not shown) [BSS-TP119],0.087,0.072,0.05,0.043,0.061,0.083,0.038
O=C(NCCCCCCC1CCN(C(=O)c2ccc[nH]2)C1)Nc1cc(F)nc(F)c1 (stereo not shown) [BSS-TP120],0.049,0.047,0.066,0.028,0.042,0.053,0.035
"O=C(NCCCCCCC1CCN(C(=O)c2cc3ccccc3[nH]2)C1)Nc1ccncc1 (stereo not shown) [BSS-TP121, 1-(6(1-(2-indolylformyl)pyrrolidin-3-yl)hexyl)-2-(4-pyridinyl)urea]",0.074,0.069,0.083,0.052,0.032,0.072,0.051
"O=C(NCCCCCCC1CCN(C(=O)c2cc3ccccc3o2)C1)Nc1ccncc1 (stereo not shown) [BSS-TP122, 1-(6-(1-(2-benzofurylformyl)pyrrolidin-3-yl)hexyl)-2-(4-pyridinyl)urea]",0.063,0.067,0.069,0.026,0.061,0.071,0.049
